Experimental data as given in ChEMBL document CHEMBL1201862, “PubChem BioAssay data set” (2004).
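A five-concentration, 48-hour dose response in 96-well plates underlies each endpoint, interpolated linearly between surrounding concentrations. The concentration for 50% growth inhibition is given as GI50.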 Active and inactive are the calls of the source. Rule as the data show it: active = GI50 up to about 1.1 µM and inactive = higher.

Experiments:
Assay in all cases: NCI anticancer screen, dose series, 48 h
SK-MEL-28 = test system: SK-MEL-28
MDA-MB-435 = test system: MDA-MB-435
SF-539 = test system: SF-539
NCI-H23 = test system: NCI-H23
SNB-19 = test system: SNB-19
PC-3 = test system: PC-3
HOP-62 = test system: HOP-62
COLO 205 = test system: COLO 205
HOP-92 = test system: HOP-92
SF-295 = test system: SF-295
BT-549 = test system: BT-549
IGROV-1 = test system: IGROV-1
HL-60 = test system: HL-60
T47D = test system: T47D
SW-620 = test system: SW-620
KM12 = test system: KM12
ACHN = test system: ACHN
DU-145 = test system: DU-145
Malme-3M = test system: Malme-3M
A498 = test system: A498
SNB-75 = test system: SNB-75
CCRF-CEM = test system: CCRF-CEM
SN12C = test system: SN12C
LOX IMVI = test system: LOX IMVI
786-0 = test system: 786-0
HCT-15 = test system: HCT-15
HT-29 = test system: HT-29
OVCAR-5 = test system: OVCAR-5
EKVX = test system: EKVX
MDA-MB-231 = test system: MDA-MB-231
MOLT-4 = test system: MOLT-4
TK-10 = test system: TK-10
RPMI-8226 = test system: RPMI-8226
SR = test system: SR
Hs-578T = test system: Hs-578T
RXF 393 = test system: RXF 393
A549 = test system: A549
UACC-62 = test system: UACC-62
K562 = test system: K562
NCI/ADR-RES = test system: NCI/ADR-RES
NCI-H522 = test system: NCI-H522
NCI-H226 = test system: NCI-H226
U-251 = test system: U-251
CAKI-1 = test system: CAKI-1
UACC-257 = test system: UACC-257
MDA-N = test system: MDA-N
M14 = test system: M14
NCI-H460 = test system: NCI-H460
HCC 2998 = test system: HCC 2998
UO-31 = test system: UO-31
SK-MEL-5 = test system: SK-MEL-5
OVCAR-3 = test system: OVCAR-3
MCF7 = test system: MCF7
OVCAR-8 = test system: OVCAR-8
SK-OV-3 = test system: SK-OV-3
SF-268 = test system: SF-268
HCT-116 = test system: HCT-116
SK-MEL-2 = test system: SK-MEL-2
OVCAR-4 = test system: OVCAR-4

CCOC(=O)c1ccc(Nc2nc3ccc(C(F)(F)F)cc3nc2C(=O)OCC)cc1
GI50 (SK-MEL-28): > 100 µM (inactive)
GI50 (MDA-MB-435): > 100 µM (inactive)
GI50 (SF-539): > 100 µM (inactive)
GI50 (NCI-H23): > 100 µM (inactive)
GI50 (SNB-19): > 100 µM (inactive)
GI50 (PC-3): > 100 µM (inactive)
GI50 (HOP-62): 49.2 µM (inactive)
GI50 (COLO 205): > 100 µM (inactive)
GI50 (HOP-92): > 100 µM (inactive)
GI50 (SF-295): > 100 µM (inactive)
GI50 (BT-549): > 100 µM (inactive)
GI50 (IGROV-1): > 100 µM (inactive)
GI50 (HL-60): > 100 µM (inactive)
GI50 (T47D): > 100 µM (inactive)
GI50 (SW-620): > 100 µM (inactive)
GI50 (KM12): > 100 µM (inactive)
GI50 (ACHN): > 100 µM (inactive)
GI50 (DU-145): > 100 µM (inactive)
GI50 (Malme-3M): > 100 µM (inactive)
GI50 (A498): > 100 µM (inactive)
GI50 (SNB-75): 95.3 µM (inactive)
GI50 (CCRF-CEM): > 100 µM (inactive)
GI50 (SN12C): > 100 µM (inactive)
GI50 (LOX IMVI): > 100 µM (inactive)
GI50 (786-0): > 100 µM (inactive)
GI50 (HCT-15): > 100000 nM
GI50 (HT-29): > 100 µM (inactive)
GI50 (OVCAR-5): > 100 µM (inactive)
GI50 (EKVX): > 100 µM (inactive)
GI50 (MDA-MB-231): > 100 µM (inactive)
GI50 (MOLT-4): > 100 µM (inactive)
GI50 (TK-10): > 100 µM (inactive)
GI50 (RPMI-8226): > 100 µM (inactive)
GI50 (SR): > 100 µM (inactive)
GI50 (Hs-578T): 32.9 µM (inactive)
GI50 (RXF 393): > 100 µM (inactive)
GI50 (A549): > 100 µM (inactive)
GI50 (UACC-62): > 100 µM (inactive)
GI50 (K562): > 100 µM (inactive)
GI50 (NCI/ADR-RES): > 100 µM (inactive)
GI50 (NCI-H522): > 100 µM (inactive)
GI50 (NCI-H226): > 100 µM (inactive)
GI50 (U-251): > 100 µM (inactive)
GI50 (CAKI-1): 81.3 µM (inactive)
GI50 (UACC-257): > 100 µM (inactive)
GI50 (MDA-N): > 100 µM (inactive)
GI50 (M14): > 100 µM (inactive)
GI50 (NCI-H460): > 100 µM (inactive)
GI50 (HCC 2998): > 100 µM (inactive)
GI50 (UO-31): > 100 µM (inactive)
GI50 (SK-MEL-5): > 100 µM (inactive)
GI50 (OVCAR-3): > 100 µM (inactive)
GI50 (MCF7): > 100 µM (inactive)
GI50 (OVCAR-8): > 100 µM (inactive)
GI50 (SK-OV-3): > 100 µM (inactive)
GI50 (SF-268): > 100 µM (inactive)
GI50 (HCT-116): > 100 µM (inactive)

COc1cccc2c(N)c3cccc(C(=O)NCCN(C)C)c3nc12
GI50 (SK-MEL-28): 1.27 µM (inactive)
GI50 (MDA-MB-435): 0.422 µM (active)
GI50 (SF-539): 0.135 µM (active)
GI50 (NCI-H23): 0.132 µM (active)
GI50 (SNB-19): 0.134 µM (active)
GI50 (PC-3): 0.326 µM (active)
GI50 (HOP-62): 0.0578 µM (active)
GI50 (COLO 205): 0.13 µM (active)
GI50 (HOP-92): 0.163 µM (active)
GI50 (SF-295): 0.297 µM (active)
GI50 (BT-549): 1.19 µM (inactive)
GI50 (IGROV-1): 0.22 µM (active)
GI50 (T47D): 0.274 µM (active)
GI50 (SW-620): 0.0968 µM (active)
GI50 (KM12): 0.252 µM (active)
GI50 (ACHN): 0.0991 µM (active)
GI50 (DU-145): 0.261 µM (active)
GI50 (Malme-3M): 0.0927 µM (active)
GI50 (SK-MEL-2): 447 nM (active)
GI50 (A498): 0.281 µM (active)
GI50 (SNB-75): 0.0944 µM (active)
GI50 (CCRF-CEM): < 0.01 µM (active)
GI50 (SN12C): 0.0389 µM (active)
GI50 (LOX IMVI): 0.0513 µM (active)
GI50 (786-0): 0.0339 µM (active)
GI50 (OVCAR-4): 157 nM (active)
GI50 (HCT-15): 1380 nM
GI50 (HT-29): 0.053 µM (active)
GI50 (OVCAR-5): 0.344 µM (active)
GI50 (EKVX): 0.174 µM (active)
GI50 (MDA-MB-231): 0.214 µM (active)
GI50 (MOLT-4): < 0.01 µM (active)
GI50 (TK-10): 0.439 µM (active)
GI50 (RPMI-8226): 0.221 µM (active)
GI50 (SR): 0.0152 µM (active)
GI50 (Hs-578T): 0.0746 µM (active)
GI50 (RXF 393): 0.213 µM (active)
GI50 (A549): 0.0233 µM (active)
GI50 (UACC-62): 0.357 µM (active)
GI50 (K562): 0.0415 µM (active)
GI50 (NCI/ADR-RES): 0.979 µM (active)
GI50 (NCI-H522): 0.0241 µM (active)
GI50 (NCI-H226): 0.11 µM (active)
GI50 (U-251): 0.159 µM (active)
GI50 (CAKI-1): 0.103 µM (active)
GI50 (UACC-257): 0.701 µM (active)
GI50 (MDA-N): 0.321 µM (active)
GI50 (M14): 0.432 µM (active)
GI50 (HCC 2998): 0.179 µM (active)
GI50 (UO-31): 0.462 µM (active)
GI50 (SK-MEL-5): 0.367 µM (active)
GI50 (OVCAR-3): 0.369 µM (active)
GI50 (MCF7): 0.0146 µM (active)
GI50 (OVCAR-8): 0.134 µM (active)
GI50 (SK-OV-3): 0.233 µM (active)
GI50 (SF-268): 0.0659 µM (active)
GI50 (HCT-116): 0.0748 µM (active)
